Data as given in US5100875A, “Novel peptides having plateler aggregation inhibitory activity” (Institut National de la Sante et de la Recherche Medicale …, priority 1986, dated 1992).
Residues, ends and D or L forms follow the SMILES beside them.

Columns and labels:
platelets = assay: Inhibition of platelet aggregation (ADP-induced, washed platelets with fibrinogen); assay type: cell-based; settings: isolated human platelets, ADP 5×10^-6 M, fibrinogen 1.1×10^-6 M
Protocol: The effect of the synthetic peptides on platelet aggregation was studied on platelets isolated as previously described for the study of the binding to fibrinogen. The stimulation of the platelets was also brought about by 5×10^-6 M ADP and the assay was carried out in the presence of 1.1×10^-6 M fibrinogen and of […] CaCl2.

[1] = target: T1, platelet fibrinogen receptor (Homo sapiens, UniProt P05106+P08514); assay: Inhibition of platelet-fibrinogen binding (125I-fibrinogen, ADP-stimulated washed platelets); settings: 4×10^7 human platelets, 125I-fibrinogen 0.1×10^-6 M, ADP 5×10^-6 M, CaCl2 0.5 mM, 15 mn incubation
T1 construct: endogenous in cells; host or cells: washed human blood platelets, stimulated with ADP
T1 sequence (P08514 32-887 limits assumed): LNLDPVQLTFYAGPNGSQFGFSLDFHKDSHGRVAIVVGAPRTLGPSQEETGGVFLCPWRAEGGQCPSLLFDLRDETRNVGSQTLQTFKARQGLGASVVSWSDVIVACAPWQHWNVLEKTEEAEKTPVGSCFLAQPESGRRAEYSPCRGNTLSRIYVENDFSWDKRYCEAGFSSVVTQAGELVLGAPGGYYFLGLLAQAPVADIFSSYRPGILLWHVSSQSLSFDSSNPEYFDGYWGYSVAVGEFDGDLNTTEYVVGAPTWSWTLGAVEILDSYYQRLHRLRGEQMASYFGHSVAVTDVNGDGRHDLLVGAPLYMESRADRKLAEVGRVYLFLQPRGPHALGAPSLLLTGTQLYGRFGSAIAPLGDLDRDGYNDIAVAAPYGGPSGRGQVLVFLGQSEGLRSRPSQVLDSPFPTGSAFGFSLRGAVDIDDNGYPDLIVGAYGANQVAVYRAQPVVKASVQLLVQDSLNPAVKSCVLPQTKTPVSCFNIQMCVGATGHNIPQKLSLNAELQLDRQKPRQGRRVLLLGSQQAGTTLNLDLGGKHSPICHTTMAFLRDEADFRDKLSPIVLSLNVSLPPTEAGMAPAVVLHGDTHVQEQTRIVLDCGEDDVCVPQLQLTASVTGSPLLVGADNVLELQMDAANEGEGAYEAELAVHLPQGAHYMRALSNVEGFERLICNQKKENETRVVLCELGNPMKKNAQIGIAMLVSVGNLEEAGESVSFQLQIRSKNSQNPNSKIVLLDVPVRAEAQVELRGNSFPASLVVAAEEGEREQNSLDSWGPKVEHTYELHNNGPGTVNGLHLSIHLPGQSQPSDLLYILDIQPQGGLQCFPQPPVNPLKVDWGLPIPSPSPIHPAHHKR
T1 sequence (P08514 891-1039 partner limits assumed): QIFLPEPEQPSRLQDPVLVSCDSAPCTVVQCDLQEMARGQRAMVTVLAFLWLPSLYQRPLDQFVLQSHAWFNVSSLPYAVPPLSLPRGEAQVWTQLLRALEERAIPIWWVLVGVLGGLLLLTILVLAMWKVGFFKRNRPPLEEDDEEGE
T1 sequence (P05106 27-788): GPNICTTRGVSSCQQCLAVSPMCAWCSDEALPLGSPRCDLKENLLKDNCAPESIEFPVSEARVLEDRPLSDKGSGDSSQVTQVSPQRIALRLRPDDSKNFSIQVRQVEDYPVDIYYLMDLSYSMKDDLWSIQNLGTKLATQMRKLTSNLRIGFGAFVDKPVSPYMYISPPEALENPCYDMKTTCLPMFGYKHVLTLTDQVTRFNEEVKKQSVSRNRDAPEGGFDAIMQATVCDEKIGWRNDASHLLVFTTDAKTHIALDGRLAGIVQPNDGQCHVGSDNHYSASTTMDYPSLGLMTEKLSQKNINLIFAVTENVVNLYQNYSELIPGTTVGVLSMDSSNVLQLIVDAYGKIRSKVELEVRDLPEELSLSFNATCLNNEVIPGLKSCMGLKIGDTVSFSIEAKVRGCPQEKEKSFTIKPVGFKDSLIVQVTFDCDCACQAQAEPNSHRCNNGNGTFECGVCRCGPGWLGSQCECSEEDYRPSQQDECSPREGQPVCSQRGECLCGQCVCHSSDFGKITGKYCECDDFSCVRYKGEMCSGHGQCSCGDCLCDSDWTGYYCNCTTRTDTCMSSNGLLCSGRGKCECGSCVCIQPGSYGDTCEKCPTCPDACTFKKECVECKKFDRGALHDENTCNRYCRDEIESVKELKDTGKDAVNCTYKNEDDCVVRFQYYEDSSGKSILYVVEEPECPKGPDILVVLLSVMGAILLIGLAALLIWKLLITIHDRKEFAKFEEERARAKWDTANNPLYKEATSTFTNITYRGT
Protocol: The platelets were isolated from 60 ml of human blood collected in the anticoagulant buffer ACD in a ratio of 1 volume of ACD to 6 volumes of blood.
The blood is then centrifuged for 20 mn at a 1,000 r/mn (JOUAN E 96 centrifuge) at room temperature.
The PRP (plasma rich in platelets) is decanted and treated with 0.1 μM PGE1, then centrifuged for 15 mn at 2,000 r/mn.
The platelets obtained in the pellet are then taken up in 1 ml of Tyrode buffer-albumin, pH 7.2, prepared with the following composition:
The platelets are washed on a column of Sepharose CL 2B using Tyrode buffer-albumin, pH 7.2, then the platelets are recovered and diluted to a concentration of 2×10^8 platelets/ml.
The assays are carried out on 4×10^7 platelets in the presence of CaCl2 (0.5 mM), ^125 I-fibrinogen 0.1×10^-6 M) and different concentrations of peptide, and the stimulation of the platelets is induced by ADP (5×10^-6 M). After incubation for 15 mn and deposition on a 15% saccharose solution the ^125 I-fibrinogen-plateletcomplex is isolated by centrifugation at 12,000 r/mn for 2 mn.
This table also presents the sequence of the peptides.

Row | IC50 (platelets) | IC50 [1] | Compound
1 | 15 µM | 7 µM | N=C(N)NCCC[C@H](N)C(=O)NCC(=O)N[C@@H](CC(=O)O)C(=O)N[C@@H](Cc1ccccc1)C(=O)O [RGDF, H-Arg-Gly-Asp-Phe-OH] (H-RGDF-OH)
2 | – | 3.6 µM | NC(N)=NCCC[C@H](N)C(=O)NCC(=O)N[C@@H](CC(=O)O)C(=O)N[C@@H](Cc1c[nH]c2ccccc12)C(=O)O [RGDW, H-Arg-Gly-Asp-Trp-OH] (H-RGDW-OH)
3 | 10 µM | – | N=C(N)NCCC[C@H](N)C(=O)NCC(=O)N[C@@H](CC(=O)O)C(=O)N[C@@H](Cc1c[nH]c2ccccc12)C(=O)O [RGDW, H-Arg-Gly-Asp-Trp-OH] (H-RGDW-OH)
4 | 20 µM | 20 µM | H-LRGDF-OH [LRGDF, H-Leu-Arg-Gly-Asp-Phe-OH]
